This is an account of results in a melting point compilation (Tetko et al.; mined from patent text by program, amines drawn as free bases though some values may be those of a salt).

As a reminder, the melting point is the temperature of the solid-liquid transition.

Structures are written as SMILES.

With `CCCCCc1ccc(C(=O)Nc2ccc3cc(CN4CCCC4)cnc3c2C)cc1`, the melting point came to 121 °C.

As to `Cc1c(SCCCn2ccnc2)ccnc1CSc1ccncc1`, the melting point fell in the range of 117 to 119 °C.

In turn, `Cn1ncc(/C=C/C(=O)Nc2ccc(Cc3nc4ccccc4[nH]3)cc2)c1-c1ccc(F)cc1` had a melting point of over 300 °C. `CCCN(c1c([O-])[c+](N(CCC)C2CC(C)(C)NC(C)(C)C2)[c+]1[O-])C1CC(C)(C)NC(C)(C)C1` came in with a melting point of 198 to 199 °C. Compound `C[C@@H](NC(=O)c1c[nH]c2ncc(-c3nn(CCCO)c4cc(Cl)ccc34)nc12)C(=O)N1CC(C#N)C1` showed a melting point of 240 to 250 °C. `CCC(C)c1ccc(-n2c(-c3cc(C)c(OCCO)c(C)c3)nc3ccccc3c2=O)cc1` (configuration not stated) registered a melting point of 152 to 153 °C. To `O=C(NCCCn1ccnc1)c1[nH]c2ccc(Cl)cc2c1S(=O)(=O)c1ccccc1` belongs 216 to 218 °C. As to `COc1cc(Oc2cccc(C(F)(F)F)c2)nc(C(=O)NC=C(Cl)Cl)c1`, the melting point lay within 123 to 125 °C. To `CCOC(=O)CCc1cc(C(=O)c2ccc(C(=O)OCC)cc2)ccc1O` belongs 70 to 71 °C; to `CC(C)(C)NC(=O)C1(O)CC(C)(C)NC(C)(C)C1`, 134 to 136 °C. With `CC(C)(C)C(=O)C(=CC(=O)c1ccc(Cl)cc1)n1cncn1`, the melting point worked out at 140 °C. `O=C(Nc1ccc(-n2nc(C(F)(F)F)cc2C2CC2)nc1)c1cccc(F)c1F` registered a melting point of 151 to 156 °C. `O=C(SCCCC(=O)N1CCC[C@H]1C(=O)O)c1ccccc1` yielded a melting point of 159 to 161 °C. In turn, `COc1ccc(-c2nc(N3CCNCC3)c3c(C)c(C#N)sc3n2)cc1` yielded a melting point of 210 to 212 °C. Take `CCOC(=O)C=C(C)c1ccc([N+](=O)[O-])cc1`: the melting point lay within 71 to 74 °C. `CC(=O)NCc1nc2c(N)nc3cccnc3c2n1CC(C)(C)O` showed a melting point of 198 to 200 °C. For `CSc1nn2c(N)cc(C)nc2c1S(=O)(=O)c1cccnc1`, the melting point was 227 to 228 °C. Compound `COC(=O)CCCCCCCCOC1OC(CO)C(O)C(O)C1NC(C)=O` (configuration not stated) showed a melting point of 178 to 180 °C. `CNc1nc(-c2cccc(NC(=S)c3ccc(C)cc3)c2)c2cc(OC)c(OC)cc2n1` registered a melting point of 209 to 211 °C. Take `O=Cc1cn(Cc2ccc(Cl)cc2)nc1CN1CCC(c2ccccc2)(c2ccccc2)CC1`: the melting point was 133 to 134 °C.

Take `CSCCN(C)C(=O)N(C)c1cnc(-c2cncc(F)c2)s1`: the melting point lay in the range of 68 to 69 °C. In the case of `CCOC(=O)CCCCCOc1ccc(C(=O)Nc2ccccc2Sc2ccccc2-c2nnn[nH]2)cc1`, the melting point was 137 to 138 °C.

`Cc1c(C#N)cc2ccc3c(c2c1Br)C(C)(C)C(=O)O3`: the melting point lay in the range of 235 to 237 °C. `CCN(CC)C(=O)c1cc(-c2ccccc2)c2ccccc2c1OC` came in with a melting point of 102 to 103 °C. `CC1(CCOC2CCCCO2)C(=O)NNC1=O` (configuration not stated) showed a melting point of 179 to 180 °C. In the case of `Cc1ccc(CCc2cc(Br)c3nc(N)sc3c2)nc1`, the melting point fell in the range of 216 to 218 °C. To `CCc1nc2c(cnn2CC)c(NC2CCOCC2)c1CNC(=O)c1cc(C)cc(C(=O)NCc2ccc(C)c(-c3cccc(C=O)c3)c2)c1` belongs 117 to 120 °C; to `COC(=O)c1cc(S(C)(=O)=O)ccc1OCc1ccccn1`, 189 to 192 °C. `COc1ccc(C(=O)c2ccc(Br)cc2)c(C)c1F`: the melting point was 93 to 95 °C. For the compound `CC(Oc1ccccc1Cl)C(=O)OC1CC(O)C=C2C=CC(C)C(CCC3CC(O)CC(=O)O3)C21` (mixture of isomers), the melting point was 152 to 155 °C. To `CS(=O)(=O)c1ccc(-c2ncccc2C(=O)c2ccccn2)cc1` belongs 143 to 147 °C; to `CCOC(=O)CCc1ccc(CCN2CCN(S(=O)(=O)c3ccccc3)CC2)cc1`, 114 to 116 °C. Turning to `Cc1nc(C(F)(F)F)ccc1C(=O)C1=C(O)C2CC2C(C)(S(C)=O)C1=O` (configuration not stated), the melting point was 160 °C. `CCOC(=O)Cn1nc(-c2ccccc2O)nc1-c1ccccc1O` gave a melting point of 172 to 174 °C. Compound `N#CCCc1cccc2ccn(Cc3cccc(/C=C/c4ccc5ccc(Cl)cc5n4)c3)c12` registered a melting point of 151 °C. Take `CCc1c(C(=O)C(N)=O)c2c(OCC(=O)NOC(C)(C)C)cccc2n1Cc1ccccc1`: the melting point lay in the range of 203 to 205 °C.

In turn, `O=S1(=O)CCN2C=CC=C(c3ccc(Oc4ccc(C(F)(F)F)cc4)cc3)C2=N1` returned a melting point of 253 to 255 °C. To `CCn1c([N+](=O)[O-])cnc1-c1nnc2ccc(N)nn12` belongs 218 to 222 °C; to `CC(=O)Oc1cn(Cc2c(F)cccc2F)c2sc(-c3ccc([N+](=O)[O-])cc3)c(C)c2c1=O`, 216 to 217 °C.

Consider `Clc1ccn(-c2cccnc2)n1`, for which the melting point was in the range of 98 to 106 °C. The compound `Oc1ccc2nc(Cc3ccc(Cl)cc3)oc2c1` registered a melting point of 167 to 168 °C. Compound `O=C(NCCCCc1cccnc1)c1ccc(-c2cccc(O)c2)cc1` displayed a melting point of 150 to 152 °C. To `CCOC(=O)Nc1cscc1C(=O)OC` belongs 52 °C; to `O=[N+]([O-])c1ccc(Br)cc1-c1cc(-c2cccc(Br)c2)on1`, 195 to 197 °C; to `O=C(O)Cc1c(C(=O)O)c2cc(Oc3ccc(C(F)(F)F)cn3)ccc2n1-c1ccc(OC(F)(F)F)cc1`, 203 °C. Next, `Cn1c(C(F)(F)F)cc(=O)n(-c2ccc3snc(C4OCCO4)c3c2)c1=O`: 213 to 216 °C; `N#Cc1ccccc1OC1SCC(O)C(O)C1O` (configuration not stated): 130 to 132 °C.

With `COc1ccc(C[C@H]2C3=C(CCCC3)CCN2C(C)=O)cc1`, the melting point fell in the range of 80 to 81.5 °C. `CCOC(=O)COc1cc(C)nc2c(O)cccc12` displayed a melting point of 97 to 98 °C. `O=c1ccc2c([N+](=O)[O-])cccc2n1O` registered a melting point of 205 °C. With `CC=Cc1cccc2c(=O)c(C)c(-c3ccc(C(C)C)cc3)oc12`, the melting point is 105 to 107 °C.

`Cc1noc(C)c1-c1ccc(OC2SCC(O)C(O)C2O)cn1` (configuration not stated): the melting point is 138 °C.

Turning to `CN1C2CCC1CC(c1ccc3ccccc3c1)C2` (configuration not stated), the melting point fell in the range of 77 to 79 °C. `N#Cc1cn(-c2c(Cl)cc(C(F)(F)F)cc2Cl)c(N)c1I` yielded a melting point of 130 to 132 °C. To `COc1ccc(-c2ncn(CCCCCCCC(=O)O)c2-c2ccc(OC)cc2)cc1` belongs 142 to 143 °C; to `COC(=O)CCC(=O)Oc1c(C)c(C)c2c(c1C)SC(C)O2` (configuration not stated), 73 to 75 °C; to `O=S(=O)(c1ccccc1)c1c[nH]c2c(CCN3CCN(Cc4ccccc4)CC3)cccc12`, 80 to 82 °C. In turn, `CC(=O)OCC(=O)c1cc2c(s1)SCCc1cc(=O)n(-c3ccc(Cl)cc3)nc1-2` displayed a melting point of 172 to 174 °C.

In the case of `COc1cc2c(cc1OC)C(=O)CCCS2`, the melting point lay in the range of 128 to 129 °C.

For `Cc1cccc(C(=O)C2=C(O)C(=O)N(c3ccc(C)nn3)C2c2ccc(C(C)C)cc2)c1` (configuration not stated), the melting point fell in the range of 245 to 250 °C.

Turning to `COc1cc(N2C(=O)c3ccccc3C2=O)c2nc(Cl)cc(C)c2c1Oc1cccc(C(F)(F)F)c1`, the melting point lay within 225 to 227 °C. In turn, `O=S(=O)(CCO)CCC(c1cc(F)ccc1F)S(=O)(=O)c1ccc(Cl)cc1` (configuration not stated) showed a melting point of 111 to 113 °C. `O=C1C=c2c(c3c4ccccc4oc3c3[nH]c4ccccc4c23)=N1` yielded a melting point of over 300 °C. With `CCc1noc(-c2cn(-c3cccc(Oc4ccccc4)c3)cn2)n1`, the melting point is 108 to 109 °C. Next, `COc1ccc(N=Nc2ccc(O)c(C(=O)Nc3ccc4cn[nH]c4c3)c2)cc1`: 279 °C.

`CC(=O)NCC1(N2CCN(C)CC2)CCCCC1` gave a melting point of 110 to 111 °C. For `CC(C)c1sc(C#N)c2c1C(=O)CC(C)(C)C2`, the melting point fell in the range of 59 to 60 °C. To `Cn1cc(-c2nn(-c3cccc(C(F)(F)F)c3)ccc2=O)c(-c2ccccc2)n1` belongs 181 to 183 °C; to `O=C(O)c1ccc(-n2cc3ccccc3n2)cc1`, 286 to 288 °C. As for `CSc1nc(-c2ccc(Cl)cc2)nc(-c2ccccn2)n1`, the melting point came out at 152 °C.

The compound `O=C(O)CCC(=O)N[C@H]1C[C@H](C(=O)O)Nc2cc(Cl)cc(Cl)c21` (relative stereo) returned a melting point of 221 to 223 °C.

In the case of `CCOC(=O)c1c(N[C@H]2CC[C@@H](c3ccccc3)CC2)ccnc1C`, the melting point turned out to be 191 °C.

Regarding `OCC1OC(n2c(NC3CC3)nc3cc(Cl)c(Cl)cc32)C(O)C1O` (configuration not stated), the melting point fell in the range of 184 to 186 °C. In turn, `CSc1cc(C)c(C(=O)N=C(N)N)cc1S(C)(=O)=O` yielded a melting point of 220 to 222 °C.

For `CC(Cl)CCC(=O)c1ccccc1` (configuration not stated), the melting point was in the range of 28 to 30 °C. As for `CCCN(CCC)C(=O)NC(CS)Cc1ccccc1` (single isomer, unassigned; (+)), the melting point worked out at 68 °C. Next, `CCCCCCCCNC(=O)Nc1ccccc1C(=O)NC1CCN(Cc2ccccc2)CC1`: 129 °C; `CCOc1c(C(=O)c2ccccc2)cnc2c1cnn2Cc1ccco1`: 70 °C. To `CC(C)OC(=O)c1cc(-n2c(=O)c3c(n(C)c2=O)CCCC3)ccc1Cl` belongs 136 to 138 °C; to `CNC(=O)[C@@H](NC(=O)[C@@H](CC(=O)OCc1ccccc1)n1ccc(-c2ccncc2)c1)C(C)(C)C`, 130 to 133 °C; to `Cc1nn(C)cc1C(=O)Nc1ccccc1-c1ccc(F)c(Cl)c1`, 177 to 180 °C. Next, `CN(CCCCCCO)c1ccc(C=Cc2ccc(S(C)(=O)=O)cc2)cc1`: 113 to 115 °C; `COC(=O)c1ccc2c(c1)N(C1CC1)C=NS2(=O)=O`: 191 to 194 °C; `O=c1[nH]nc(-c2ccc(OC3CCN(C4CCC4)CC3)cc2)c2c1CCC2`: 210 to 213 °C. `Cc1ccc(-c2nc(Cc3cccc(CO)c3)c(C)o2)cc1` showed a melting point of 97 to 99 °C. On to `Fc1c(F)c(F)c(CSc2nc3cnccc3[nH]2)c(F)c1F`, for which the melting point lay within 156 to 159 °C. Consider `O=C1NC(=O)C2(CCCCC2)N1c1ccc(I)cc1`, for which the melting point is 249 to 251 °C.
